Results: US12171744B2, “Pharmaceutical combinations for the treatment of cancer” (Presage Biosciences, Inc., priority 2016, dated 2024)
Entries after “also recorded” stand apart in the source; their conditions may differ.

Assays:
[1] = test system: RIVA (activated B-cell, or ABC) model of DLBCL; experiment: Xenograft tumor growth; assay type: in vivo, NOD SCID mice; conditions: Voruciclib 200 mpk, Venetoclax 1 mpk
Experimental: Immune deficient NOD SCID mice were implanted with the RIVA (activated B-cell, or ABC) model of DLBCL. The xenografted tumors were allowed to grow in the NOD SCID host until they reached 200 mm^3, at which point the xenografted animals were randomized into 4 study groups: 1. Vehicle control; 2. […] Venetoclax at 1 mpk; and 4. […] Venetoclax was dosed by oral gavage on days 1 and 4 of each weekly cycle. Drug effects were assessed via tumor volume measurements twice weekly by a technician blinded to the treatment of each subject in the study. N=5-6 animals per treatment arm.

[2] = test system: Ramos Burkitt's lymphoma cells; experiment: CIVO microinjection, cleaved caspase-3 staining; assay type: in vivo, mice; conditions: marker of apoptosis
Experimental: (§1) Mice were enrolled into CIVO drug studies when the tumor volume reached approximately 1000 mm^3. Microinjection studies were performed using the CIVO device as previously described (Klinghoffer et al, Science Translational Medicine 2015) The device was configured with 6 injection needles set for a 6 mm injection length and a total volume delivery of 3 μl. A fluorescent tracking marker (FTM) was added to each drug reservoir in vehicle for delivery along with each drug or drug combination. All micro-doses were equivalent to or lower than what would be allowed under FDA guidelines for Exploratory IND (Investigational New Drug) studies and by solubility of drug into vehicle. Total amounts of agents injected are tabulated below in Table 4.
FIGS. 5A-5D show Ramos Burkitt's lymphoma cells stained for cleaved caspase-3 (CC3) (shown in red) as a marker of apoptosis.

[3] = test system: NU-DHL-1 diffuse large B-cell lymphoma (DLBCL) cells; experiment: CIVO microinjection, staining for MCL-1 and cleaved caspase-3; assay type: in vivo, mice
Experimental: Mice were enrolled into CIVO drug studies when the tumor volume reached approximately 1000 mm^3. […] A fluorescent tracking marker (FTM) was added to each drug reservoir in vehicle for delivery along with each drug or drug combination. […] Total amounts of agents injected are tabulated below in Table 4.
The cells were stained for cleaved caspase-3 (CC3) (shown in red) as a marker of apoptosis.

SUDHL4 model of DLBCL = experiment: Xenograft tumor growth and Western blot of tumors; assay type: in vivo, NOD SCID mice
Experimental: (§2) Protein lysates were prepared by adding ice-cold 1×RIPA Buffer (from 10×, Millipore) with 1×-3× Halt protease and phosphatase inhibitor cocktail (100×, Pierce) to cell pellets, followed by pulse sonication (˜3-5 secs) three times. Lysates were cleared by centrifugation at 14K rpm for 15-20 mins and the supernatant (lysate) was collected for further analysis. To prepare lysates from cryopreserved xenograft tumor tissue, tissue was first homogenized using a hand-held tissue homogenizer (Cole Palmer) in above lysis buffer followed by pulse sonication and centrifugation as described above. Above steps were carried out under ice cold conditions. Protein samples were quantified using Bradford assay (Biorad) at 1:10 or higher dilutions using appropriate blank controls with 1×RIPA. […]
Immune deficient NOD SCID mice were implanted with the SUDHL4 model of DLBCL. […] Drug effects were assessed via tumor volume measurements twice weekly by a technician blinded to the treatment of each subject in the study. […]

Toledo cells = experiment: CIVO microinjection, CC3 expression; set-up: species or system mice; conditions: mouse, in vivo
Experimental: as §1

CDK9 = CDK9 (Homo sapiens, UniProt P50750); experiment: Kinase inhibition profiling (filter binding assay with γ-33P-ATP)
Experimental: The testing facility was Reaction Biology Corp. Kinase activity was measured using a filter binding assay with radioactive γ-33P-ATP as phosphate donor. The ATP concentration was near the Km for respective kinase. For each kinase, an IC50 value were calculated from a 10-point concentration curve of the test article and converted to Ki values.

NUDHL/Dox1000 cells = experiment: CIVO microinjection, CC3 expression; set-up: species or system mice; conditions: mouse, in vivo
Experimental: (§3) Cell lines shown in Table 1, adherent or suspension, were treated in 6-well dishes or T10 flasks respectively, seeded at one million per ml density prior to treatment in total volumes of 3-10 ml. All agents used for in vitro cell treatments were formulated in water/DMSO to achieve required concentrations (as stated in respective figure labels/legends) with DMSO concentrations not exceeding 0.01%. Drug sources are indicated in table under ‘CIVO microinjection studies’. Cells were harvested at experimental time points: 2, 6, or 24 hours post treatment as indicated in respective figures, first by washing cells twice in ice-cold PBS in 15 ml falcon tubes, centrifugation at 1000 rpm for 5 mins followed by lysis of the respective cell pellets as described in section below. Note: Drug resistant NUDHL1 Dox 1000 nM and Toledo Dox 1000 nM cell lines were generated at Presage by culturing parental lines in media with stepwise increments in Doxorubicin concentration over several passages. These cells were used to generate xenografts when resistance to 1 uM Dox was achieved.
(§4) Mice were enrolled into CIVO drug studies when the tumor volume reached approximately 1000 mm^3. […]

Toledo/Dox1000 cells = experiment: CIVO microinjection, CC3 expression; set-up: species or system mice; conditions: mouse, in vivo
Experimental: as §3, §4

[4] = test system: DLBCL xenograft tumors (OCILY10); experiment: MCL1 expression in xenograft tumors after oral dosing; assay type: in vivo, mice; conditions: 100 mpk, oral gavage daily for 5 days, 4 h post final dose
Experimental: as §2, with “1×RIPA. 20-25 micrograms of protein from each sample were subject to SDS-PAGE using BOLT 4-12% Bis-Tris gels (Thermofisher) and transferred to either 0.45 or 0.2 micron pore size membranes (as applicable based on protein molecular size), and either nitrocellulose (NC) or pvdf (Thermofisher) using manufacturer's protocol, blocked for one hour in 5% milk at room temperature, probed with primary antibodies (Table 2) at 4 deg C. overnight and corresponding HRP-conjugated secondary antibodies (Jackson Immunoresearch, 1:10,000-1:20,000 dilutions) for 1 hour at room temperature.” for “1×RIPA.”

Chain of CDK9 (P50750 whole entry): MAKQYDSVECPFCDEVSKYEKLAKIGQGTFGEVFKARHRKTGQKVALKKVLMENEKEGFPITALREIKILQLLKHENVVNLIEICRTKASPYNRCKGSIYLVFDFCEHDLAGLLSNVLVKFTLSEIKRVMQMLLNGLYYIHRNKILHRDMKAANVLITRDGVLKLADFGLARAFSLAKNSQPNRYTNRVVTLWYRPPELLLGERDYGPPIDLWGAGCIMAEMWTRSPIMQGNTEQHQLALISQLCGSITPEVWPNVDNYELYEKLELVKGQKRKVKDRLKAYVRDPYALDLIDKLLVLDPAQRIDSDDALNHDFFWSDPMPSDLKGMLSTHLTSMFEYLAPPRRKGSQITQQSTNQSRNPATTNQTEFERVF
Chain of CDK9 (O60563 whole entry partner): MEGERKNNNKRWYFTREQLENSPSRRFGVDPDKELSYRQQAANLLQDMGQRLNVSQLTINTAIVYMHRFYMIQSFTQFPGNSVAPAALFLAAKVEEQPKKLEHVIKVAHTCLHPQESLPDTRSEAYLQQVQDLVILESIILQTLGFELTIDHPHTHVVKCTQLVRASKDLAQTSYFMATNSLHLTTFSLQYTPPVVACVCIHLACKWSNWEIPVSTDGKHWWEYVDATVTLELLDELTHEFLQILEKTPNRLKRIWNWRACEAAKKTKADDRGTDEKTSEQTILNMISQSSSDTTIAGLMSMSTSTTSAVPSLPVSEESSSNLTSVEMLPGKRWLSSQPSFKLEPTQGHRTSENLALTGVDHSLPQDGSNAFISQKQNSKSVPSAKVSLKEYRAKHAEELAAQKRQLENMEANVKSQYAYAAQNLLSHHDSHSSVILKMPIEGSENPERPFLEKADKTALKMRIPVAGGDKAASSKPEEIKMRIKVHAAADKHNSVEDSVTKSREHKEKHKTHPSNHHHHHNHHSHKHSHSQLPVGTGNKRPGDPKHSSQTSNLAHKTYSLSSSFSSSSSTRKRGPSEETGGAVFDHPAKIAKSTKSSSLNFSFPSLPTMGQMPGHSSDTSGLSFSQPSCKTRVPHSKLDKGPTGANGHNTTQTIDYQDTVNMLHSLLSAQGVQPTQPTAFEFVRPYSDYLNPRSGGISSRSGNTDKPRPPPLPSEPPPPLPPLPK

In the case of `CN1CC[C@@H](c2c(O)cc(O)c3c(=O)cc(-c4ccc(C(F)(F)F)cc4Cl)oc23)[C@@H]1CO` (relative stereo) [voruciclib, (+)-trans-2-(2-Chloro-4-trifluoromethylphenyl)-5,7-dihydroxy-8-(2-hydroxymethyl-1-methylpyrrolidin-3-yl)-chromen-4-one], the “tumor size (images)” value [1] is reported as “smaller”, the average tumor volume ([1]; oral gavage) is reported as “decrease in tumor volume” and the “expression of CC3” value [2] is reported as “slight increase”. For the same molecule, the “expression of CC3 (cleaved caspase-3)” value ([3]; marker of apoptosis) was “slight increased; also recorded: slight effect”, the “expression of MCL-1” value ([3]; staining, versus vehicle) was “decreased” and the normalized tumor volume (SUDHL4 model of DLBCL; Voruciclib 200 mpk, Venetoclax 25 mpk, oral gavage 6 days of the week) was “increase in tumor volume”. For the same molecule, the p53 (SUDHL4 model of DLBCL; Western blot of tumors, Day 26, 4 hours post treatment) was “restores”, the CC3 expression (Toledo cells) was “slight effect” and the “inhibition of CDK9” value (CDK9) was “strongest inhibition”. The CC3 expression (NUDHL/Dox1000 cells) was “slight effect”, the CC3 expression (Toledo/Dox1000 cells) was “slight effect” and the “MCL1 expression in xenograft tumors” value [4] was “suppressed”.
